# Results as given in a melting point compilation (Tetko et al.; mined from patent text by program, amines drawn as free bases though some values may be those of a salt).
row,melting point,SMILES
1,91 to 94 °C,COC(=O)CCCc1cc2nc(C)ccc2n1S(=O)(=O)c1ccccc1
2,115 to 117 °C,Cc1nc2c(Cl)cnn2c(Cl)c1CCCl
3,179 to 181 °C,COC(=O)N(C)C1CN(C(=O)Nc2ccc(OC(F)(F)F)cc2)NC1c1ccc(Cl)cc1 (stereo not given)
4,143 to 145 °C,O=C(CCCN1CCCC1=O)Nc1ncccc1C(=O)c1cccs1
5,269 to 270 °C,COc1cc(C)cc2nc(S(=O)(=O)Nc3c(Cl)cccc3Cl)nn12
6,193 to 195 °C,COc1cccc(N2CCCN(c3ccnc4sc(C(N)=O)c(N)c34)CC2)c1
7,250 to 254 °C,COc1ccc(-c2ccc(C(=O)O)cc2)cc1
8,80 to 89 °C,CC(C)NC(=O)N1C2=NC(C)(C)N(C(C)C)C(=O)N2c2ccccc21
9,128 to 130 °C,CC#CCN=C(NC#N)NCCSCc1[nH]cnc1C
10,138 to 140 °C,O=C(Cn1c2c(c3ccccc31)CCNCC2)Nc1cccnc1
11,122 to 123 °C,CCCCSc1cc(C(=O)OC)cc(S(N)(=O)=O)c1Oc1ccccc1
12,165 to 166 °C,CC(C)(C)OC(=O)Nc1cccc(OC2CCN(c3ccncc3)CC2)c1
13,186 to 187 °C,CCOC(=O)c1sc(Oc2ccc(NC(=O)OC(C)(C)C)cc2)c2c1CCc1cnn(C)c1-2
14,118 to 119 °C,N#CN=C(NCCSCc1ncccc1Br)NCCSCc1ncccc1Br
15,254 °C,Cc1ccc(C#N)cc1-c1cc2cnc(NC3CCOCC3)nc2n(C)c1=O
16,198 to 200 °C,COc1c(Br)ccc2oc(COc3ccc(-c4ccc(S(=O)(=O)NC(C(=O)O)C(C)C)cc4)cc3)c(C)c12 (stereo not given)
17,92 to 93 °C,Cc1ccc(C(=C/C=C/C=O)c2ccc(C)cc2)cc1
18,50 to 52 °C,CCOC1C=CC(=O)N1 (stereo not given)
19,121 to 124 °C,CCOc1cc2ncc(C#N)c(Nc3ccc4c(c3)NCC4)c2cc1OCC
20,123 to 124 °C,O=C(NCc1cccs1)C1CC2C=CC1C2 (stereo not given)
21,248 to 249 °C,CC(C)(C)c1cc(/C=C/c2n[nH]c(=S)s2)cc(C(C)(C)C)c1O
22,233 to 234 °C,COc1ccc2c(c1)CCc1c-2cc(-c2ccccc2)n1-c1ccc(O)c(C(=O)O)c1
23,203 to 204 °C,Cc1c(CO)cccc1NC(=O)CN1C[C@@H](C)N(c2ncnc3sccc23)[C@@H](C)C1
24,145 to 147 °C,COC(=O)C1=C(C)NC(c2scnc2C)=NC1c1ccc(F)cc1Cl (stereo not given)

row,melting point,SMILES
1,217 to 219 °C,C#CCN1C(=O)COc2cc(F)c(N3C(=O)C4C5CC5CN4C3=O)cc21 (stereo not given)
2,212 to 213 °C,CCCCOC(=O)c1cc(=O)c2c(cc(OC)c3ncccc32)[nH]1
3,99 to 101 °C,O=C1CCCCC1c1ccncc1 (stereo not given)
4,250 °C,CCC(C(=O)C(C)C(O)C(C)CCc1ccc(C)c(O)c1C(=O)O)C1OC(CC)(C2CCC(O)(CC)C(C)O2)CC1C (stereo not given)
5,135 °C,Cc1ccc(S(=O)(=O)c2cn(C(=O)OC(C)(C)C)c3cc(-c4ccc(F)cc4)ccc23)cc1
6,220 to 222 °C,NNc1nc(N)c2ncn(COCCO)c2n1
7,172 °C,CCCCNC(=O)Nc1ccc(N(CCC)CCC)cc1C(=O)NCC1CCN(C(c2ccccc2)c2ccccc2)CC1
8,203 to 205 °C,CN(c1ncc2ncnc(Nc3ccc(F)c(Cl)c3)c2n1)[C@H]1CC[C@H](N)CC1
9,188 °C,CCOC(=O)c1nc(NC(C)=O)sc1Cc1cccc(SC)c1
10,195 to 197 °C,NS(=O)(=O)c1cc(C(=O)O)cc([N+](=O)[O-])c1OCC(F)(F)F
11,145 to 147 °C,O=C1c2ccccc2OC(CCCl)CN1Cc1ccccc1 (stereo not given)
12,130 to 132 °C,Nc1nc2ccccc2c2c1ncn2CCOCCCc1cccs1
13,119 to 120 °C,COCC1CN(c2ccc3cc(OCC4CC4)ccc3c2)C(=O)O1 (stereo not given)
14,76 to 78 °C,CSC1Oc2ccc(Cl)cc2C1=O (stereo not given)
15,125 to 127 °C,O=C(NCc1ccccc1C(F)(F)F)c1ccc2cnccc2n1
16,177 to 179 °C,NCCCNc1ncc2ncnc(Nc3ccc(F)c(Cl)c3)c2n1
17,190 °C,COc1ccc(C2Cc3cc(C(F)(F)F)ccc3NC(=O)C2CO)cc1 (stereo not given)
18,156 to 157 °C,O=S(=O)(Nc1cc(-c2ncc(C(F)(F)F)cc2Cl)ccc1Cl)c1ccc(Cl)cc1
19,254 to 256 °C,O=S1(=O)CCN2C=CC=C(c3ccc(OC4CCCC4)cc3)C2=N1
20,217 to 219 °C,CCOCn1cc(Cl)c(O)cc1=O
21,278 to 279 °C,O=C(O)c1ccc(-c2nc(-c3ccc(Oc4ccccc4)cc3)no2)cc1
22,126 °C,CCC1=C(C(=O)OC)C(c2ccc(C)cc2)C(C#N)=C(CC(C)(C)C)N1 (stereo not given)
23,141 to 144 °C,Cc1cccc2c(=O)n([C@H](C)[C@](O)(Cn3cncn3)c3ccc(F)cc3F)cnc12
24,145 to 147 °C,CCCC1=C(C(=O)OCC)C(c2ccccc2Cl)c2cn(C(=O)Nc3ccccc3)nc2N1 (stereo not given)

row,melting point,SMILES
1,94 °C,Cc1ccc(OCCOc2cccc(C)c2)cc1
2,174 to 177 °C,CCOC(=O)C1=C(C)NC(C#N)=C(C(=O)OCC)C1c1cccc([N+](=O)[O-])c1 (stereo not given)
3,332 to 336 °C,Cc1c(-c2cc(C#N)ccc2F)sc2nc(N)[nH]c(=O)c12
4,115 to 116 °C,CCCc1c(OCCCSc2ccc(C(=O)NCC(=O)OCC)cc2)ccc(C(C)=O)c1O
5,148 to 150 °C,CN1C(=O)C2CC2(c2ccc([N+](=O)[O-])cc2)C1=O (stereo not given)
6,150 to 151 °C,CC(C)(C)OC(=O)Nc1ccc2ccc(S(=O)(=O)N(Cc3ccccc3)Cc3ccccc3)cc2c1Br
7,105 to 107 °C,CCCc1nn(-c2ccc(C(F)(F)F)cn2)cc1CCCCOc1ccc(CCC(=O)O)c(C)c1
8,181 to 183 °C,CN1Cc2c(-c3noc(CN)n3)ncn2-c2sccc2C1=O
9,255 to 258 °C,CC(C)(Cc1ccc(O)cc1)NCC(O)c1cc(OCc2ccccc2)cc2c1OCC(=O)N2 (stereo not given)
10,195 to 196 °C,CC1(C)C(NN)=Nc2ccccc2C1(O)c1ccccc1 (stereo not given)
11,293 to 295 °C,CNC(=O)c1ccccc1Nc1nc(Nc2ccc3c(c2)OCCNC3=O)ncc1Cl
12,194 to 199 °C,CNS(=O)(=O)N=C(NC(=O)OC)C(C)C
13,68 to 72 °C,O=c1cc(C(F)(F)F)[nH]c(=O)n1-c1cc(O)c(Cl)cc1F
14,72 to 73 °C,COc1cccc(CC(=NO)c2ccccc2)c1
15,127 to 132 °C,CCc1ccc(C2C(=O)Oc3c2cc(C(C)(C)C)cc3C(C)(C)C)cc1 (stereo not given)
16,85 to 86 °C,CC(=O)Nc1ncc2ncn(COC(COC(C)C)COC(C)C)c2n1
17,189 to 190 °C,NC(=O)N(O)CCNC(=O)c1ccc2ccccc2n1
18,215 to 216 °C,CC(C)c1ccc(-c2cccc(-c3cccc(C(=O)O)c3)n2)cc1
19,93 to 95 °C,CCON=C(C)c1cccc(Oc2nc(OC)cc(OC)n2)c1C(=O)OC
20,> 268 °C,Oc1ccc(-c2ncc3ncc(Nc4cccnc4)cc3n2)cc1
21,84 °C,COc1ccc(C2CCc3cc(OC)ccc3C2CO)cc1 (stereo not given)
22,100 to 105 °C,CC#CCOc1ccc(OCC(=O)OCC)cc1
23,191 to 192 °C,CC(Cl)(Cl)C(NC(=O)c1cccc(F)c1)NC(=NC#N)Nc1ccc(Cl)nc1 (stereo not given)
24,90 to 92 °C,CC(Oc1ccc(Oc2ccc(C(F)(F)F)cc2Cl)cc1)C(=O)O (stereo not given)

row,melting point,SMILES
1,85 to 87 °C,Cc1cc(C(=O)C(F)(F)F)ccc1NC(=O)OC(C)(C)C
2,77 to 79 °C,CC(C)C(CN1CCCC1)C(=O)c1cc(-c2ccccc2)no1 (stereo not given)
3,114 to 115 °C,O=C(O)CC1=Cc2ccccc2C1
4,189 to 190 °C,COc1ccc(C2CCOCC2)cc1NC(=S)c1ncc[nH]1
5,174 °C,COCCn1nc(C)c(-c2ccc3c(c2)NC(=O)CO3)c1-c1ccc(F)cc1
6,80 to 82 °C,CCOC(=O)c1cnn(-c2c(Cl)cc(C(F)(F)F)cc2Cl)c1Br
7,190 to 192 °C,O=C1Cc2cc(I)ccc2N1
8,262 °C,Cc1ccc(COc2ccc(CC(NC(=O)c3cn4ccc(-c5ccc(Cl)cc5)cc4n3)C(=O)O)cc2)cc1 (stereo not given)
9,131 °C,Cc1cc(C(=O)N2Cc3cccn3Cc3ccccc32)ccc1C1=CCCCC1(C)C
10,63 to 64 °C,CCOC(=O)c1c2c3c(cccc3n1C)C(OC)CC2 (stereo not given)
11,150 to 151 °C,N#CNC=Nc1ccc(-c2ccccn2)cc1
12,240 to 242 °C,O=C1c2ccccc2C(=O)c2c(NCCc3ccc(O)cc3)ccc(NCCc3ccc(O)cc3)c21
13,258 to 260 °C,CC=CC=CC(=O)Nc1ccc2ncnc(Nc3cccc(Br)c3)c2c1
14,100 to 102 °C,CCCCCCCCCCCCSC1C(=O)N(c2c(Cl)cc(Cl)cc2Cl)N=C1Nc1cc(OC)c(Cl)cc1Cl (stereo not given)
15,253 to 255 °C,O=c1[nH]c2ncc(-c3ccccc3)nc2n1CC1CCCCC1
16,219 to 220 °C,CC1(C)CC(=C(c2ccc(O)cc2)c2ccc(/C=C/C(=O)O)cc2)CC(C)(C)C1
17,126 to 128 °C,OCc1cnc2c(F)c(F)c(F)cc2c1-c1cccs1
18,173 to 174 °C,CCn1c(C(=O)c2cc(C)cc(CCC#N)c2)c(C(C)C)c(=O)[nH]c1=O
19,205 to 215 °C,CC1(NC(=O)C(F)(F)F)CN(c2c(F)cc3c(=O)c(C(=O)O)cn(CCF)c3c2F)C1
20,129 to 131 °C,Nc1cc(C(=O)CCCCCl)cc2c1OCC2
21,102 to 103 °C,CCOC(=O)COc1ccc(Cc2ccc(O)cc2)c(Cl)c1Cl
22,70.1 to 75.9 °C,CC1(C)OC[C@H](COc2nc(Oc3ccc(F)cc3F)nc3[nH]nc(-c4ccccc4Cl)c23)O1
23,123 to 125 °C,CC(C(=S)c1ccnc(NC=O)c1)S(C)=O (stereo not given)

row,SMILES,melting point
1,CC(C)CC(=O)Nc1cc(-c2ccnc3c(C(=O)c4cccs4)cnn23)ccc1Cl,172 to 175 °C
2,O=C(NCc1ccccn1)c1ccc(C2=NOC(c3cc(Cl)cc(Cl)c3)(C(F)(F)F)C2)cc1C(F)(F)F (stereo not given),69 to 70 °C
3,NC(=O)c1nc(-c2ccccc2)n2c1CN=C(c1ccccc1F)c1cc(Cl)ccc1-2,260 to 262 °C
4,CCCCC1(N(C)C)CCC(c2[nH]c3ccccc3c2C)(c2[nH]c3ccccc3c2CCNS(=O)(=O)C2CCCC2)CC1 (stereo not given),111 to 115 °C
5,CC(C)(C)OC(=O)N1CCC(c2c[nH]cn2)CC1,198 °C
